Results: ChEMBL document CHEMBL3396964, “SAH derived potent and selective EZH2 inhibitors” (Bioorg Med Chem Lett, 2015)

How the values were obtained:
[1] = molecular target: T1, Histone-lysine N-methyltransferase EZH1 (Homo sapiens, UniProt Q92800); assay: Inhibition of EZH1 (unknown origin) by HMT assay
T1 sequence (Q92800 whole entry): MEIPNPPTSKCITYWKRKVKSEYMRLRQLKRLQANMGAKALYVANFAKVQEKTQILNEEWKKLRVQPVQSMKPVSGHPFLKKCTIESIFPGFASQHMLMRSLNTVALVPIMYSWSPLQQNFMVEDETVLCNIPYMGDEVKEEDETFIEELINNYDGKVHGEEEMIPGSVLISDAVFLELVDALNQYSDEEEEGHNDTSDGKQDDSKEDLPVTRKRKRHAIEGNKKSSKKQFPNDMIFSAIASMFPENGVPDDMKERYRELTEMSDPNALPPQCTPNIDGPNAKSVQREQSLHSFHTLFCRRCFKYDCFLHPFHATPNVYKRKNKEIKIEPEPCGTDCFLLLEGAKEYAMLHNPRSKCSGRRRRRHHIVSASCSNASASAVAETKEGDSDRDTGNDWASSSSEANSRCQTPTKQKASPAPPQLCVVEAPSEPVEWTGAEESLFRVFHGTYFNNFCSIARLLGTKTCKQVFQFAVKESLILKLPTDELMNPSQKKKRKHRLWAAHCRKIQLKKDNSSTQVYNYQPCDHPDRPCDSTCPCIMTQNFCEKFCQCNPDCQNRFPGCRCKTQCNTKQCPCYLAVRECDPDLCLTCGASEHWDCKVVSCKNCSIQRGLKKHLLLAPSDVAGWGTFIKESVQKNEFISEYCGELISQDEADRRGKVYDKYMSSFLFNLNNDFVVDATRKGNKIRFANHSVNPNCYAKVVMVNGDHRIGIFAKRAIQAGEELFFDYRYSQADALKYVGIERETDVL

[2] = molecular target: Histone-lysine N-methyltransferase KMT5C (Homo sapiens, UniProt Q86Y97); assay: Inhibition of SUV420H2 (unknown origin) by HMT assay
[3] = molecular target: T2, Histone-lysine N-methyltransferase SUV39H1 (Homo sapiens, UniProt O43463); assay: Inhibition of SUV39H1 (unknown origin) by HMT assay
T2 sequence (O43463 whole entry): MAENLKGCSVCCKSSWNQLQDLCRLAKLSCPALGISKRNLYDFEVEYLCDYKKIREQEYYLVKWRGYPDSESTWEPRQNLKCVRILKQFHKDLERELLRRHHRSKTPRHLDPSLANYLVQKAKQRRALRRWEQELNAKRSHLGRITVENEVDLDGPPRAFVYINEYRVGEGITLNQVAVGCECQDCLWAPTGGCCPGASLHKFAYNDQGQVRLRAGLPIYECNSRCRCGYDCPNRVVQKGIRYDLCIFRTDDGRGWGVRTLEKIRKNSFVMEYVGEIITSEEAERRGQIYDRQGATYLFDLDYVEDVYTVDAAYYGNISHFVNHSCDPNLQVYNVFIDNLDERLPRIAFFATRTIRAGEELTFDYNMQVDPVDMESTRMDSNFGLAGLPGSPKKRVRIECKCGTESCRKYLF

[4] = molecular target: T3, Histone-lysine N-methyltransferase EHMT1 (Homo sapiens, UniProt Q9H9B1); assay: Inhibition of EHMT1 (unknown origin) by HMT assay
T3 sequence (Q9H9B1 whole entry): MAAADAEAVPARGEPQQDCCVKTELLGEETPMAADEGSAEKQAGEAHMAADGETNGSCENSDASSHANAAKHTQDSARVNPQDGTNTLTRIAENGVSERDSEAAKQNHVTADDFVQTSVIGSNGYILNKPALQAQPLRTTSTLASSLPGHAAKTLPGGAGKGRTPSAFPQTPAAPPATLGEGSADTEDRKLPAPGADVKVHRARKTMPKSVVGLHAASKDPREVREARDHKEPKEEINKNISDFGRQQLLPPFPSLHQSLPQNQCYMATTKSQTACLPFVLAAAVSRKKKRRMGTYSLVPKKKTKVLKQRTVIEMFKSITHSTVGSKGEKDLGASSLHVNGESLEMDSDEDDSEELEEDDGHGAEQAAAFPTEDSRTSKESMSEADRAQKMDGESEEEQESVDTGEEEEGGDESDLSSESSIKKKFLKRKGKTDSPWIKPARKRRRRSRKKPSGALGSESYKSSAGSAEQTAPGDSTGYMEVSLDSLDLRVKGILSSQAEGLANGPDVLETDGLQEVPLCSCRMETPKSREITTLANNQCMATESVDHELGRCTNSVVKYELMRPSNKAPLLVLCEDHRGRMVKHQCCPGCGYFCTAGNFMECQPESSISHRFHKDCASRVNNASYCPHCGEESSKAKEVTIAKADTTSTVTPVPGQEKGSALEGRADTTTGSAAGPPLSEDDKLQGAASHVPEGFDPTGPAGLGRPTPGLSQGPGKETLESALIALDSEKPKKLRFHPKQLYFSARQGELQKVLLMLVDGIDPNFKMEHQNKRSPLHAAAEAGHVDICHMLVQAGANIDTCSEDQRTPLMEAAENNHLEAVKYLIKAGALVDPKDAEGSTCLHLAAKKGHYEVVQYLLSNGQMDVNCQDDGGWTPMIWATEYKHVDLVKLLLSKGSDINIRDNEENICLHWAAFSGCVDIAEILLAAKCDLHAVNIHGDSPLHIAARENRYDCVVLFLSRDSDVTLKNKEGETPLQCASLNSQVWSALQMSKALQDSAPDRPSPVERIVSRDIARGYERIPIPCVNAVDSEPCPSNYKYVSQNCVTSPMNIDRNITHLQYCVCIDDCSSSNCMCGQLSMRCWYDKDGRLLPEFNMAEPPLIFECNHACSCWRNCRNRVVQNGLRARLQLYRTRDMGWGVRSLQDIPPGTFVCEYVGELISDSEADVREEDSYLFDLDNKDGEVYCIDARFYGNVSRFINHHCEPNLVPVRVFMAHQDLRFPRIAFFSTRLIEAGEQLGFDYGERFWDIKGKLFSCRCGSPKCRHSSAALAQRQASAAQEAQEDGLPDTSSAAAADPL

[5] = molecular target: Histone-lysine N-methyltransferase SETDB1 (Homo sapiens, UniProt Q15047); assay: Inhibition of SETDB1 (unknown origin) by HMT assay
[6] = molecular target: T4, Histone-lysine N-methyltransferase EHMT1 (Homo sapiens) (UniProt Q9H9B1); assay: Inhibition of EHMT1 (unknown origin) at 10 uM by HMT assay
T4 sequence (whole entry): T3 sequence (Q9H9B1 whole entry)

[7] = molecular target: Histone-lysine N-methyltransferase EZH2 (Homo sapiens, UniProt O75530+Q09028+Q15022+Q15910); assay: Inhibition of N-terminally FLAG-tagged wild type EZH2 in EZH2/SUZ12/EED/RbAp48 complex (unknown origin) expressed in baculovirus infected in SF9 cells assessed as inhibition of methylation of nucleosomes at H3K27 by scintillation counting in presence of [3H]SAM
Sequence of Histone-lysine N-methyltransferase EZH2 (Q15910 whole entry, one chain of several): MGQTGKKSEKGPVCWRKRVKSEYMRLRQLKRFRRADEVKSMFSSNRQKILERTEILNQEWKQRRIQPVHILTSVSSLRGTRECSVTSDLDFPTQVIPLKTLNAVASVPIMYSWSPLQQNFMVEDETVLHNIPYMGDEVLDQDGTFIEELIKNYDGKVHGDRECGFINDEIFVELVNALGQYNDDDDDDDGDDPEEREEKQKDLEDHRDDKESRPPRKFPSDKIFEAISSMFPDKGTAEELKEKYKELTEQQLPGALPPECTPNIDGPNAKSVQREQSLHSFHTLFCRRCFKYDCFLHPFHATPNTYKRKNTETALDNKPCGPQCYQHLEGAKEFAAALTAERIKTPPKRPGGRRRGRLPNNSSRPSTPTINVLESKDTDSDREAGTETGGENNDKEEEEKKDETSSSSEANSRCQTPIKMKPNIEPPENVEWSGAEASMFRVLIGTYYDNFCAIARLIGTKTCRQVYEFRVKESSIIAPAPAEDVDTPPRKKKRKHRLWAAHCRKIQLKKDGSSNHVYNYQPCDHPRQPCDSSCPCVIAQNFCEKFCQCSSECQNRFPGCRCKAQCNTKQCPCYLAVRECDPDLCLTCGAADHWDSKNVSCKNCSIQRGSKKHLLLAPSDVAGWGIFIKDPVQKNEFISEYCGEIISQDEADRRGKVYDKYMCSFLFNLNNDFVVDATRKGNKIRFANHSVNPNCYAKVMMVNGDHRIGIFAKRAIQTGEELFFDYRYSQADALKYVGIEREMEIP

Sequence of Histone-lysine N-methyltransferase KMT5C (Q86Y97 whole entry): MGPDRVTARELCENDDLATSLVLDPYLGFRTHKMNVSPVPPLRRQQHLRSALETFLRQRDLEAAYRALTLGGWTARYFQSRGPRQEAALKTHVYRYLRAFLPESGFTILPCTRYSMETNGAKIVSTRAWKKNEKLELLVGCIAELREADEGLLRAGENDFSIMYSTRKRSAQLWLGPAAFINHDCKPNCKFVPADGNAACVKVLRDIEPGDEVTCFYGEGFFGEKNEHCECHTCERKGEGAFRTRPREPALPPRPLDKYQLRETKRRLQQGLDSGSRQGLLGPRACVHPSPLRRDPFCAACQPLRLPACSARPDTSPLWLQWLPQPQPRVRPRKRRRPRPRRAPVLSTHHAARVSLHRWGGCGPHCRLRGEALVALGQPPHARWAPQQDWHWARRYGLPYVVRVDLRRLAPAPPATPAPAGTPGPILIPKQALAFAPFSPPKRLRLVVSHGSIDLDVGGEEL

In the case of `Nc1ncnc2c1ncn2[C@@H]1O[C@H](CSCC[C@H](N)C(=O)NCc2cc(-c3ccccc3)[nH]n2)[C@@H](O)[C@H]1O`, the IC50 [1] is reported as 2.1 µM, the IC50 [2] is reported as over 100 µM and the IC50 [3] is reported as 9.5 µM. It also gave an IC50 [4] of over 30 µM, an IC50 [5] of over 100 µM and an inhibition [6] of 24%. The IC50 [7] was 0.27 µM.
